Measured values from patent US6872805B2 (Bristol-Myers Squibb Company, priority 2000, dated 2005).

Legend:
[1] = molecular target: HCV NS3/4A protease complex (Hepatitis C virus genotype 1a, UniProt P27958, C1454S/C1711G); assay: Recombinant HCV NS3/4A protease complex FRET peptide assay (strain not stated); format: biochemical
[2] = molecular target: T1, porcine pancreatic elastase (Sus scrofa, UniProt P00772); assay: Specificity assay, porcine pancreatic elastase; format: biochemical; details: read-out: PPE
T1 construct: from tissue; host or cells: pancreas (from the enzyme's name only)
T1 sequence (P00772 27-266): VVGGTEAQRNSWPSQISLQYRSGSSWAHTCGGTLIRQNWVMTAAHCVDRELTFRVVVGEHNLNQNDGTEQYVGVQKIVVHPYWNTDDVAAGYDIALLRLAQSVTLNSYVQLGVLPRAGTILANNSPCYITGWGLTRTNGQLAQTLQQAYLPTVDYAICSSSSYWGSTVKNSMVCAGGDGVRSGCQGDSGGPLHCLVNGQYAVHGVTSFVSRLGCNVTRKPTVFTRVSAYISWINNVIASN
Protocol: The specificities of compounds of the present invention were determined against a variety of serine proteases: human leukocyte elastase, porcine pancreatic elastase and bovine pancreatic α-chymotrypsin and one cysteine protease: human liver cathepsin B. In all cases a 96-well plate format protocol using calorimetric […] (pNA) substrate specific for each enzyme was used as described previously (Patent WO 00/09543) with some modifications.
Each assay included a 1 h enzyme-inhibitor pre-incubation at RT followed by addition of substrate and hydrolysis to ˜30% conversion as measured on a Spectramax Pro microplate reader. Compound concentrations varied from 100 to 0.4 μM depending on their potency.
The final conditions and protocol for each assay was as reported previously (Patent WO 00/09543) with the inclusion of an additional assay: • 50 mM Tris-HCl pH 8, 0.5M Na2SO4, 50 mM NaCl, 0.1 mM EDTA, 3% DMSO, 0.01% Tween-20 with 133 μM succ-AAA-PNA and 20 nM Elastase
The percentage of inhibition was calculated using the formula: [1−((UVinh−UVblank)/(UVctl−UVblank))]×100

[3] = In vivo rat PK studies (systemic and liver exposure); parameters: species or system male Sprague Dawley rats; details: dosed orally or intravenously
Protocol: All animal experimentation was conducted in accordance with USDA guidelines under the Animal Welfare Act. To assess the systemic and liver exposure, representative compounds were orally (gastric intubation) or intravenously (bolus or infusion) administered to male Sprague Dawley rats bearing indwelling jugular vein cannulae. At pre-determined times after dosing, serial blood samples were taken from the implanted cannulae. Plasma was separated from EDTA-treated blood by centrifugation and stored at −20° C. until analysis. The liver was removed from rats after carbon dioxide asphyxiation, rinsed with saline and blotted dry. For analysis, a 2 g portion of the outer part of one lobe was minced and homogenized with 4 ml of 80% acetonitrile/HBSS buffer. After centrifugation, the supernatant was kept at −20° C. until analysis. Quantitation of represenatative compounds in plasma and liver homogenate samples was performed by a specific LC/MS/MS method optimized for each compound.

Chain of HCV NS3/4A protease complex (P27958 1027-1711, stated change not applied): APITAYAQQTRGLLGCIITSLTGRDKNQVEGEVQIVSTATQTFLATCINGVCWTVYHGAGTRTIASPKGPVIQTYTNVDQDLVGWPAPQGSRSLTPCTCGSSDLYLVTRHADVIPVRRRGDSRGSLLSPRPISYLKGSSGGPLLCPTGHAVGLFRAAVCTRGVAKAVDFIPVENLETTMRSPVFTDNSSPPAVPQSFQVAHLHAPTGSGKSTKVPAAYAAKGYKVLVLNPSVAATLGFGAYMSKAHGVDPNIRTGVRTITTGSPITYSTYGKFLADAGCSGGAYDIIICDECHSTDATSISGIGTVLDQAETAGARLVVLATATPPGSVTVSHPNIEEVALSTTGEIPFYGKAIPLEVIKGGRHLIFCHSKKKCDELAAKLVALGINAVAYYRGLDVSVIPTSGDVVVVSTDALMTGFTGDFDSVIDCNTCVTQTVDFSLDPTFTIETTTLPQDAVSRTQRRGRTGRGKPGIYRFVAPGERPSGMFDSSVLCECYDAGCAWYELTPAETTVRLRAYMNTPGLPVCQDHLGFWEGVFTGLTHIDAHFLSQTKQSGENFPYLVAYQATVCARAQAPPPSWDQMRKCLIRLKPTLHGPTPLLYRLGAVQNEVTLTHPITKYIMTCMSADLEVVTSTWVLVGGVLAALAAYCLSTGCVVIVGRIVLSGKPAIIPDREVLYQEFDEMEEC
Chain of HCV NS3/4A protease complex (P27958 1027-1711, stated change not applied): as above

Molecule `C=CC1C[C@]1(NC(=O)[C@@H]1C[C@@H](Oc2cc(-c3ccccc3)nc3cc(OC)ccc23)CN1C(=O)C(NC(=O)OC(C)(C)C)C(C)(C)C)C(=O)NS(=O)(=O)c1ccc(NC(C)=O)cc1` (stereo partly shown) [Compound 58] has an IC50 ([1]; IC50, NS3/4A protease enzyme assay, strain not stated, activity ranges) of less than 50 nM, an IC50 ([1]; IC50, strain not stated) of 21 nM and an IC50 [2] greater than 100000 nM. The viral target exposure [3] was “viral target exposure was achieved”.
